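Interpolation was linear, between the two tested concentrations surrounding the appropriate level; five concentrations were tested over 48 hours in 96-well plates. GI50: concentration for 50% inhibition of growth.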 Calls of active or inactive are those of the source. Rule as the data show it: active = GI50 up to about 1.1 µM and inactive = higher.
Tests used:
Assay in all cases: NCI tumour cell line growth inhibition, 48 h
UACC-257 = system: UACC-257
HCT-15 = system: HCT-15
T47D = system: T47D
MDA-MB-435 = system: MDA-MB-435
HOP-62 = system: HOP-62
SF-268 = system: SF-268
PC-3 = system: PC-3
SR = system: SR
M14 = system: M14
OVCAR-3 = system: OVCAR-3
DU-145 = system: DU-145
SF-295 = system: SF-295
Malme-3M = system: Malme-3M
A549 = system: A549
IGROV-1 = system: IGROV-1
UO-31 = system: UO-31
NCI-H460 = system: NCI-H460
A498 = system: A498
RPMI-8226 = system: RPMI-8226
K562 = system: K562
ACHN = system: ACHN
COLO 205 = system: COLO 205
EKVX = system: EKVX
KM12 = system: KM12
SW-620 = system: SW-620
SNB-75 = system: SNB-75
Hs-578T = system: Hs-578T
MDA-N = system: MDA-N
OVCAR-4 = system: OVCAR-4
MCF7 = system: MCF7
OVCAR-8 = system: OVCAR-8
U-251 = system: U-251
NCI/ADR-RES = system: NCI/ADR-RES
RXF 393 = system: RXF 393
NCI-H23 = system: NCI-H23
NCI-H522 = system: NCI-H522
SK-MEL-28 = system: SK-MEL-28
HT-29 = system: HT-29
SK-MEL-2 = system: SK-MEL-2
SK-MEL-5 = system: SK-MEL-5
NCI-H226 = system: NCI-H226
786-0 = system: 786-0
SNB-19 = system: SNB-19
CCRF-CEM = system: CCRF-CEM
HL-60 = system: HL-60
OVCAR-5 = system: OVCAR-5
HOP-92 = system: HOP-92
SK-OV-3 = system: SK-OV-3
SN12C = system: SN12C
HCT-116 = system: HCT-116
SF-539 = system: SF-539
TK-10 = system: TK-10
CAKI-1 = system: CAKI-1
UACC-62 = system: UACC-62
HCC 2998 = system: HCC 2998
MDA-MB-231 = system: MDA-MB-231
MOLT-4 = system: MOLT-4
LOX IMVI = system: LOX IMVI
BT-549 = system: BT-549

SMILES: COC(=O)c1cc2ccc(OC(C)=O)c(OC(C)=O)c2cn1
- GI50 (UACC-257): 14.4 µM (inactive)
- GI50 (HCT-15): 20.4 µM
- GI50 (T47D): > 10 µM (inactive)
- GI50 (MDA-MB-435): 1.73 µM (inactive)
- GI50 (HOP-62): 25.5 µM (inactive)
- GI50 (SF-268): 20.8 µM (inactive)
- GI50 (PC-3): 20.7 µM (inactive)
- GI50 (SR): 2.65 µM (inactive)
- GI50 (M14): 19 µM (inactive)
- GI50 (OVCAR-3): 13 µM (inactive)
- GI50 (DU-145): 24.7 µM (inactive)
- GI50 (SF-295): 4.95 µM (inactive)
- GI50 (Malme-3M): 8.07 µM (inactive)
- GI50 (A549): 21.2 µM (inactive)
- GI50 (IGROV-1): 18.6 µM (inactive)
- GI50 (UO-31): 15.8 µM (inactive)
- GI50 (NCI-H460): 21.1 µM (inactive)
- GI50 (A498): 14 µM (inactive)
- GI50 (RPMI-8226): 2.16 µM (inactive)
- GI50 (K562): 2.72 µM (inactive)
- GI50 (ACHN): 17.1 µM (inactive)
- GI50 (COLO 205): 18.7 µM (inactive)
- GI50 (EKVX): 22.6 µM (inactive)
- GI50 (KM12): 18.7 µM (inactive)
- GI50 (SW-620): 3.64 µM (inactive)
- GI50 (SNB-75): 20 µM (inactive)
- GI50 (Hs-578T): > 10 µM (inactive)
- GI50 (MDA-N): 1.5 µM (inactive)
- GI50 (OVCAR-4): 16.7 µM (inactive)
- GI50 (MCF7): 2.79 µM (inactive)
- GI50 (OVCAR-8): 7.64 µM (inactive)
- GI50 (U-251): 3.64 µM (inactive)
- GI50 (NCI/ADR-RES): 6.5 µM (inactive)
- GI50 (RXF 393): 17.4 µM (inactive)
- GI50 (NCI-H23): 18 µM (inactive)
- GI50 (NCI-H522): 17.4 µM (inactive)
- GI50 (SK-MEL-28): 19 µM (inactive)
- GI50 (HT-29): 23.9 µM (inactive)
- GI50 (SK-MEL-2): 18.3 µM (inactive)
- GI50 (SK-MEL-5): 16.1 µM (inactive)
- GI50 (NCI-H226): 22.9 µM (inactive)
- GI50 (786-0): 18.5 µM (inactive)
- GI50 (SNB-19): > 10 µM (inactive)
- GI50 (CCRF-CEM): 2.29 µM (inactive)
- GI50 (HL-60): 2.72 µM (inactive)
- GI50 (OVCAR-5): 18.7 µM (inactive)
- GI50 (HOP-92): 17.1 µM (inactive)
- GI50 (SK-OV-3): 19.4 µM (inactive)
- GI50 (SN12C): 3.11 µM (inactive)
- GI50 (HCT-116): 17.3 µM (inactive)
- GI50 (SF-539): 19.1 µM (inactive)
- GI50 (TK-10): 20.6 µM (inactive)
- GI50 (CAKI-1): 20.8 µM (inactive)
- GI50 (UACC-62): 2.09 µM (inactive)
- GI50 (HCC 2998): 20.8 µM (inactive)
- GI50 (MDA-MB-231): 4.01 µM (inactive)
- GI50 (MOLT-4): 4.12 µM (inactive)
- GI50 (LOX IMVI): 1.42 µM (inactive)
- GI50 (BT-549): > 10 µM (inactive)

SMILES: O=C(CC(NC(=O)C(F)(F)F)C(=O)O)OCc1ccccc1 (configuration not stated)
- GI50 (UACC-257): > 100 µM (inactive)
- GI50 (HCT-15): > 100 µM
- GI50 (T47D): > 100 µM (inactive)
- GI50 (MDA-MB-435): > 100 µM (inactive)
- GI50 (HOP-62): > 100 µM (inactive)
- GI50 (SF-268): > 100 µM (inactive)
- GI50 (PC-3): > 100 µM (inactive)
- GI50 (SR): > 100 µM (inactive)
- GI50 (M14): > 100 µM (inactive)
- GI50 (OVCAR-3): > 100 µM (inactive)
- GI50 (DU-145): > 100 µM (inactive)
- GI50 (SF-295): > 100 µM (inactive)
- GI50 (Malme-3M): > 100 µM (inactive)
- GI50 (A549): > 100 µM (inactive)
- GI50 (IGROV-1): > 100 µM (inactive)
- GI50 (UO-31): > 100 µM (inactive)
- GI50 (NCI-H460): > 100 µM (inactive)
- GI50 (A498): > 100 µM (inactive)
- GI50 (RPMI-8226): > 100 µM (inactive)
- GI50 (K562): > 100 µM (inactive)
- GI50 (ACHN): > 100 µM (inactive)
- GI50 (COLO 205): > 100 µM (inactive)
- GI50 (EKVX): > 100 µM (inactive)
- GI50 (KM12): > 100 µM (inactive)
- GI50 (SW-620): > 100 µM (inactive)
- GI50 (SNB-75): > 100 µM (inactive)
- GI50 (Hs-578T): > 100 µM (inactive)
- GI50 (MDA-N): > 100 µM (inactive)
- GI50 (OVCAR-4): > 100 µM (inactive)
- GI50 (MCF7): > 100 µM (inactive)
- GI50 (OVCAR-8): > 100 µM (inactive)
- GI50 (U-251): > 100 µM (inactive)
- GI50 (NCI/ADR-RES): > 100 µM (inactive)
- GI50 (RXF 393): > 100 µM (inactive)
- GI50 (NCI-H23): > 100 µM (inactive)
- GI50 (NCI-H522): > 100 µM (inactive)
- GI50 (SK-MEL-28): > 100 µM (inactive)
- GI50 (HT-29): > 100 µM (inactive)
- GI50 (SK-MEL-2): > 100 µM (inactive)
- GI50 (SK-MEL-5): > 100 µM (inactive)
- GI50 (NCI-H226): > 100 µM (inactive)
- GI50 (786-0): > 100 µM (inactive)
- GI50 (SNB-19): > 100 µM (inactive)
- GI50 (CCRF-CEM): > 100 µM (inactive)
- GI50 (HL-60): > 100 µM (inactive)
- GI50 (OVCAR-5): > 100 µM (inactive)
- GI50 (HOP-92): > 100 µM (inactive)
- GI50 (SK-OV-3): > 100 µM (inactive)
- GI50 (SN12C): > 100 µM (inactive)
- GI50 (HCT-116): > 100 µM (inactive)
- GI50 (SF-539): > 100 µM (inactive)
- GI50 (TK-10): > 100 µM (inactive)
- GI50 (CAKI-1): > 100 µM (inactive)
- GI50 (UACC-62): > 100 µM (inactive)
- GI50 (HCC 2998): > 100 µM (inactive)
- GI50 (MDA-MB-231): > 100 µM (inactive)
- GI50 (MOLT-4): > 100 µM (inactive)
- GI50 (LOX IMVI): > 100 µM (inactive)
- GI50 (BT-549): > 100 µM (inactive)

SMILES: N#CC1N(C(=O)c2ccc(F)cc2)c2ccccc2N1C(=O)c1ccc(F)cc1
- GI50 (UACC-257): 67.6 µM (inactive)
- GI50 (HCT-15): 31.3 µM
- GI50 (T47D): 27.2 µM (inactive)
- GI50 (MDA-MB-435): 46.1 µM (inactive)
- GI50 (HOP-62): > 100 µM (inactive)
- GI50 (SF-268): > 100 µM (inactive)
- GI50 (PC-3): 49.1 µM (inactive)
- GI50 (SR): 70.3 µM (inactive)
- GI50 (M14): 43.8 µM (inactive)
- GI50 (OVCAR-3): 19.9 µM (inactive)
- GI50 (DU-145): 32.9 µM (inactive)
- GI50 (SF-295): > 100 µM (inactive)
- GI50 (Malme-3M): 68.9 µM (inactive)
- GI50 (A549): > 100 µM (inactive)
- GI50 (IGROV-1): 32.4 µM (inactive)
- GI50 (UO-31): 37.7 µM (inactive)
- GI50 (NCI-H460): 38.2 µM (inactive)
- GI50 (A498): > 100 µM (inactive)
- GI50 (RPMI-8226): 23.7 µM (inactive)
- GI50 (K562): 28.2 µM (inactive)
- GI50 (ACHN): 38.5 µM (inactive)
- GI50 (COLO 205): 21.8 µM (inactive)
- GI50 (EKVX): 44.4 µM (inactive)
- GI50 (KM12): 91.6 µM (inactive)
- GI50 (SW-620): 47.9 µM (inactive)
- GI50 (SNB-75): 30.7 µM (inactive)
- GI50 (Hs-578T): 68.1 µM (inactive)
- GI50 (MDA-N): 48.5 µM (inactive)
- GI50 (OVCAR-4): 35.7 µM (inactive)
- GI50 (MCF7): 33 µM (inactive)
- GI50 (OVCAR-8): 48.1 µM (inactive)
- GI50 (U-251): 74.5 µM (inactive)
- GI50 (NCI/ADR-RES): 26.7 µM (inactive)
- GI50 (RXF 393): 71.6 µM (inactive)
- GI50 (NCI-H23): 50.4 µM (inactive)
- GI50 (NCI-H522): 34.4 µM (inactive)
- GI50 (SK-MEL-28): 43.9 µM (inactive)
- GI50 (HT-29): 33 µM (inactive)
- GI50 (SK-MEL-2): > 100 µM (inactive)
- GI50 (SK-MEL-5): 23.9 µM (inactive)
- GI50 (NCI-H226): 31.1 µM (inactive)
- GI50 (786-0): 74.5 µM (inactive)
- GI50 (SNB-19): > 100 µM (inactive)
- GI50 (CCRF-CEM): 28 µM (inactive)
- GI50 (HL-60): 40.3 µM (inactive)
- GI50 (OVCAR-5): > 100 µM (inactive)
- GI50 (HOP-92): 18.5 µM (inactive)
- GI50 (SK-OV-3): > 100 µM (inactive)
- GI50 (SN12C): 77.8 µM (inactive)
- GI50 (HCT-116): 42.3 µM (inactive)
- GI50 (SF-539): 62.7 µM (inactive)
- GI50 (TK-10): 50.9 µM (inactive)
- GI50 (CAKI-1): 62.8 µM (inactive)
- GI50 (UACC-62): 37.6 µM (inactive)
- GI50 (HCC 2998): 39.7 µM (inactive)
- GI50 (MDA-MB-231): 46.7 µM (inactive)
- GI50 (MOLT-4): 17.3 µM (inactive)
- GI50 (LOX IMVI): 29 µM (inactive)
- GI50 (BT-549): 24.9 µM (inactive)
